According to US11975072B2, “Pyropheophorbide conjugate and use thereof in the treatment of cancer and as a fluorescent marker” (INSERM (INSTITUT NATIONAL DE LA SANTÉ ET DE LA RECHERCHE …, priority 2017, dated 2024):

Key:
[1] = Photophysical properties (absorption, fluorescence, singlet oxygen production, lifetimes) in ethanol; format: physicochemical; settings: for ϕF fluorescence quantum yield: ±0.02, reference tetraphenylporphyrin in toluene; for ϕΔ quantum yield (singlet oxygen production): ±0.05, reference Rose Bengal in ethanol; for τF fluorescence lifetime: ±0.1 ns; for τΔ singlet oxygen lifetime: ±1 μs
Procedure: The absorption spectra were measured with a UV-3600 double beam UV-visible spectrophotometer (Shimadzu, Marne La Vallée, France). The fluorescence spectra were measured with a Fluorolog FL3-222 spectrofluorimeter (Horiba Jobin Yvon, Longjumeau, France) equipped with a 450 W xenon arc lamp, with a thermostated (25° C.) cuvette holder compartment, with an R928 UV-visible photomultiplier (Hamamatsu, Japan) and with a liquid nitrogen-cooled InGaAs infrared detector (DSS-16A020L Electro-Optical System Inc, Phoenixville, PA, USA). The excitation beam is diffracted by a SPEX double-grating monochromator (1200 lines/mm blazed at 330 nm). The fluorescence was measured by the UV-visible detector via the SPEX double-grating emission monochromator (1200 lines/mm blazed at 500 nm). The production of singlet oxygen was measured by the infrared detector via the SPEX double-grating emission monochromator (600 lines/mm blazed at 1 μm) and a high-pass filter at 780 nm. All the spectra were measured using 4-face quartz cuvettes. All the emission spectra (singlet-oxygen fluorescence and luminescence) were related back to the same absorbance (less than 0.2) with the lamp and photomultiplier corrections.
The fluorescence quantum yield was determined by equation (1):
[formula] where Φf and Φfo, If and Ifo, OD and ODo, n and no, are the quantum yields, the fluorescence intensities, the optical densities, and the refractive indices of the sample and of the reference respectively.
The reference used for the calculation of the fluorescence quantum yield is tetraphenylporphyrin in toluene with a φfo of 0.11.
The quantum yield for singlet oxygen production is determined by equation (2):
[formula] where ΦΔ and ΦΔo, I and Io, OD and ODo are the quantum yields for singlet oxygen production, the singlet oxygen production intensities and the optical densities of the sample and of the reference respectively.
The reference used for the calculation of the quantum yield for singlet oxygen production is Rose Bengal in ethanol with a φΔo of 0.68.
The fluorescence lifetime experiments were carried out using, for the excitation, a pulsed laser diode emitting at 407 nm (LDH-P-C-400M, FWHM<70 ps, 1 MHz) coupled to a PDL 800-D pulse generator (PicoQuant GmbH, Berlin, Germany) and, for the detection, an SPCM-AQR-15 avalanche photodiode (EG & G, Vaudreuil, Canada) coupled to a high-pass filter at 650 nm.
The acquisition was carried out using a PicoHarp 300 module linked to a PHR-800 4-channel router (PicoQuant GmbH, Berlin, Germany). The fluorescence declines were recorded using the single photon counting method (Time Correlated Single Photon Counting TCSPC). The data were collected until 1000 accumulated counts in a channel were obtained, then analyzed using the TCSPC Fluofit software (PicoQuant GmbH, Berlin, Germany) based on an iterative reconvolution using a Levensberg-Marquandt algorithm which allows multiexponential declines to be obtained.
The singlet oxygen lifetime measurements were carried out with a Tempro-01 spectrophotometer (Horiba Jobin Yvon, Longjumeau, France) composed of a SpectraLED-415 pulsed excitation diode emitting at 415 nm, of a cuvette holder compartment, of an emission monochromator of Seya-Namioka type (600-2000 nm) and of an H10330-45 thermoelectrically regulated near infrared photomultiplier tube (Hamamatsu, Japan). The assembly is controlled by the FluoroHub-B counting module and the DataStation and DAS6 software (Horiba Jobin Yvon).
The emission spectra and the phosphorescence lifetime measurements were carried out with a Fluorolog FL3-22 spectrofluorimeter (Horiba Jobin Yvon, Longjumeau, France) equipped with a 450 W continuous xenon lamp, with a xenon flash lamp, with a thermostated (25° C.) cuvette holder compartment and with an R928 UV-visible photomultiplier (Hamamatsu, Japan). The assembly is controlled by the FluoroHub-B counting module. […]

[2] = in ethanol; cited from earlier work

Row | εQI (molar extinction coefficient, QI band) [1] | εsoret band (molar extinction coefficient) [1] | λQI (QI band absorption peak) [1] | ϕF fluorescence quantum yield [1] | ϕΔ quantum yield (singlet oxygen production) [1] | τF fluorescence lifetime [1] | τΔ singlet oxygen lifetime [1] | Molecule | φΔo quantum yield for singlet oxygen production of the reference [2]
1 | 32 537 L · mol^−1 · cm^−1 | 69 663 L · mol^−1 · cm^−1 | 667 nm | 0.44 | 0.52 | 5.7 ns | 12 μs | pheophorbide-a [Pheo(a)-COOH] | –
2 | 33 265 L · mol^−1 · cm^−1 | 76 326 L · mol^−1 · cm^−1 | 668 nm | 0.34 | 0.52 | 6.7 ns | 13 μs | pyropheophorbide-a [Pyro(a)-COOH] | –
3 | – | – | – | – | – | – | – | O=C([O-])c1c(Cl)c(Cl)c(Cl)c(Cl)c1-c1c2cc(I)c(=O)c(I)c-2oc2c(I)c([O-])c(I)cc12.[Na+].[Na+] [Rose Bengal] | 0.68
